This test deals with CEM cells HIV-1 protection, formazan growth assay. As to the kind of experiment: NCI AIDS Antiviral Assay. The note with it: for IC50: measured here: growth of uninfected CEM cells. The essentials:
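Protection of CEM cells against HIV-1 was scored from cell growth (soluble formazan) across five concentrations, with parallel uninfected cells. Lack of protection may reflect toxicity.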

Calls of active or inactive are those of the source.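 How the source made its calls: active means compounds giving half or more protection of infected cells from virus-caused growth loss, again on retest; inactive means the rest.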

As to `COC(=O)c1cc2c(c3c1CC(Cc1ccccc1)C3=O)CCC2` (stereo unspecified), the EC50 was more than 200 µM and the IC50 was determined as 33.1 µM.
As for `COC1=C(Br)C(=O)c2nc(C)ccc2C1=O`, the outcome was inactive.
In the case of `CCN(CC)CCCNc1cnnc2cc(Cl)ccc12`, the EC50 is more than 363 µM and the IC50 amounted to 83.2 µM.
`O=C1NC(=S)S/C1=C/c1ccco1`: the EC50 was more than 123 µM and the half-inhibitory concentration (IC50) amounted to 72.4 µM.
Consider `O=C(/C=C/CC(O)(c1ccccc1)c1ccccc1)Nc1ccccc1Cl`, for which the EC50 is more than 19.1 µM and the IC50 was more than 19.1 µM.
Take `CCCCCCCCCCCCCCCCCCOP(=O)([O-])OC1CC[N+](C)(C)CC1`: the EC50 is more than 204 µM and the IC50 was found to be 1.91 µM.
`COc1ccc2c(c1)CC1COc3cc(OC)ccc3C1O2` (stereo unspecified): the EC50 was more than 200 µM and the IC50 was more than 200 µM.
Regarding `Cc1ccc(S(=O)(=O)OC2C(C)OCOC3COCOC32)cc1` (stereo unspecified), the EC50 was more than 145 µM and the half-maximal inhibitory concentration (IC50) was more than 145 µM.
Consider `COc1cc(C(=O)CC2OC(=O)C(Cl)=C2Cl)ccc1Cl` (stereo unspecified), for which the EC50 is more than 741 µM and the IC50 came to 145 µM.
As for `CCOC(=O)C1=C(O)CC(=O)N=C1N1CCCC1`, the EC50 is more than 200 µM and the IC50 was more than 200 µM.
On to `O=C1CCC(=O)N2c3ccccc3-c3ccccc3N12`, for which the EC50 was more than 191 µM and the 50% inhibitory concentration (IC50) is more than 191 µM.
Consider `CC1CC2NC(C)CC3NC(C)CC(N1)N32` (stereo unspecified), for which the EC50 was more than 794 µM and the half-inhibitory concentration (IC50) was more than 794 µM.
In the case of `CNC(=O)CN(C)C(=O)CCC(=O)N(C)C`, the EC50 is more than 200 µM and the half-maximal inhibitory concentration (IC50) is more than 200 µM.
Consider `COc1cc(Nc2nc3ccc(C(F)(F)F)cc3nc2-c2ccccc2)cc(OC)c1OC`, for which the EC50 is more than 20.9 µM and the IC50 is more than 20.9 µM.
Take `Cc1ccc(C)n1CCN1CCNCC1`: the EC50 was more than 200 µM and the IC50 is 162 µM.
In the same order, the values of `O=c1c(C(c2ccc([N+](=O)[O-])cc2)c2c(O)c3ccccc3n(-c3ccccc3)c2=O)c(O)c2ccccc2n1-c1ccccc1` are more than 11.7 µM and more than 11.7 µM.
Taken in the same sequence, the figures for `Nc1c2ccccc2nc2ccc(C(=O)Nc3ccc(S(N)(=O)=O)cc3)cc12` were more than 200 µM and more than 200 µM.
As for `O=C(COc1ccc(OCC(=O)N2C(=O)CSC2=Nc2ccccc2)cc1)N1C(=O)CSC1=Nc1ccccc1`, the EC50 is more than 200 µM and the IC50 stood at 25.7 µM.
For the molecule `COC(=O)c1c(C(=O)OC)c(C(=O)OC)c2c([nH]c3ccccc32)c1C(=O)OC`, the result was inactive.
Regarding `Cc1nnc(NS(=O)(=O)c2ccc(NC(=O)c3ccccc3SC(=O)CCCC[n+]3ccccc3)cc2)s1`, the half-maximal effective concentration (EC50) was 51.3 µM and the IC50 worked out at 55 µM.
As to `Cc1ccc(-c2cc(=O)c3cc(C)c(C)c(C(=O)O)c3o2)cc1`, the outcome was inactive.
`CSc1nnc(COc2ccc(Cl)cc2)o1`: the EC50 was more than 263 µM and the 50% inhibitory concentration (IC50) is more than 263 µM.
Turning to `CC(=O)Nc1cccc(N2C(=O)/C(=C\c3cccc(Oc4ccccc4)c3)S(=O)(=O)C2c2ccccc2)c1` (stereo unspecified), the EC50 is more than 200 µM and the IC50 was 34.7 µM.
Take `C=CCCCCCCCCC(=O)NCc1nc2ccccc2[nH]1`: the EC50 was more than 200 µM and the IC50 amounted to 29.5 µM.
For the molecule `COc1cc2oc(-c3ccc(O)cc3)cc(=O)c2c(OC)c1O`, the EC50 is more than 200 µM and the IC50 was more than 200 µM.
Regarding `O=C(C1CC2CCN1CC2)N1CCN(C(=O)C2CC3CCN2CC3)CC1` (stereo unspecified), the EC50 was more than 200 µM and the IC50 is more than 200 µM.
For `CC(=O)OC1CCn2nnc(CO)c21` (stereo unspecified), the result was inactive.
As to `O=c1/c(=C/c2cccc3ccccc23)sc2nc3ccccc3n12`, the EC50 is more than 30.2 µM and the IC50 was more than 30.2 µM.
For the molecule `O=C(CC1(O)C(=O)Nc2c(Cl)cc(Cl)cc21)c1cccc2ccccc12` (stereo unspecified), the EC50 was more than 67.6 µM and the 50% inhibitory concentration (IC50) was more than 67.6 µM.
For `CCOP(=O)(OCC)C(C(=O)OC)C(=O)C(=O)Nc1c(C)cc(Br)cc1C` (stereo unspecified), the EC50 is more than 537 µM and the half-maximal inhibitory concentration (IC50) was more than 537 µM.

What is called EC50 is the concentration that produces a half-maximal response. By IC50 is commonly meant the point on the concentration scale where inhibition reaches its midpoint.

Values taken from PubChem BioAssay AID179 (DTP/NCI, 2004).
